Measurements from paper PMC8659278, “Dianthiamides A–E, Proline-Containing Orbitides from Dianthus chinensis” (Molecules, 2021).
Where two headings read alike, the source gives them in different places. Peptide text beside a SMILES is read from it.

System: human non-small cell lung cancer A549 cells
Assay: MTT cytotoxicity assay, A549 cells
Format: cell-based
Protocol: Human non-small cell lung cancer A549 and human stomach adenocarcinoma MKN-28 cells were purchased from the American Type Culture Collection (ATCC; Manassas, VA, USA). […] Docetaxel was used as a positive control with an IC50 value of 0.08 μM on A549 cells.

| Compound | IC50 (human, 48 h) [µM] | IC50 (Homo sapiens, A549, MTT assay, 5 × 10^3 cells/well, 48 h incubation, tested 5–200 µM, absorbance 540 nm, read-out: cytotoxic activity against A549 cell line, IC50) [µM] |
| --- | --- | --- |
| CC[C@H](C)[C@@H]1NC(=O)[C@@H]2CCCN2C(=O)[C@@H]2CCCN2C(=O)[C@H](CC(C)C)NC(=O)[C@H](Cc2ccccc2)NC(=O)CNC(=O)[C@H](CC(N)=O)NC1=O [dianthiamide A, cyclo-(Gly^1-L-Phe^2-L-Leu^3-L-trans-Proa^4-L-cis-Prob^5-L-Ile^6-L-Asn^7)] (cyclo(GFLPPIN)) | 47.9 |  |
| CC(=O)O[C@@]12CO[C@@H]1C[C@H](O)[C@@]1(C)C(=O)[C@H](O)C3=C(C)[C@@H](OC(=O)[C@H](O)[C@@H](NC(=O)OC(C)(C)C)c4ccccc4)C[C@@](O)([C@@H](OC(=O)c4ccccc4)[C@H]21)C3(C)C [docetaxel] |  | 0.08 |
